Literature values, collected in patent publication US12485133B2, “Inhaled ivermectin” (Hovione Scientia Limited, priority 2021, dated 2025).

Columns and labels:
SARS-Cov-2 = conditions: incubated with 5 μM Ivermectin
[1] = not given; remark: listed apart in the source
[2] = not given; remark: listed apart in the source

Substance: Ivermectin
- time to eliminate the virus from supernatant and infected cells (SARS-Cov-2): ≤ 48 h
- Log P: 4.4
- stability under acidic and basic aqueous conditions ([1]; acidic and basic aqueous conditions): degrades
- optimal pH for stability ([1]; aqueous conditions): 6.3
- solid state stability (degradation in drug substance batches) ([1]; solid state, 37° C. for 1.5 years): no degradation observed
- solubility in non-polar aprotic solvents such as hexane ([2]; hexane): completely insoluble
- solubility in methanol and 95% ethanol ([2]; methanol, 95% ethanol): freely soluble
- solubility in water ([2]; water): < 1 µg/mL
